The values below are quoted from earlier work in patent US20230065900A1, “COMPOSITIONS AND METHODS FOR MODULATING INFLAMMATION AND WOUND HEALING” (Alastin Skincare, Inc., priority 2020, published 2023).

The series deals with hyaluronic acid level. Conditions: ex vivo human skin model.

Regarding `CCCCCCCC(=O)CCc1ccc(O)c(OC)c1` [hydroxymethoxyphenyl decanone], the “stimulation of dermal hyaluronic acid level versus placebo” value was 259% and the “stimulation of epidermal hyaluronic acid level versus placebo” value was 198%.
